# Values joined by “and” are separate entries in the source; they are usually repeats but may differ in a detail not shown here. Equal entries are not always repeated. “Also recorded” adds a separate entry of the source.
# What was measured:
# [1] = Stability of radiolabeled product after synthesis; assay type: physicochemical; settings: after radiosynthesis and HPLC
# Experimental: Synthesis of 2-[3-(1-carboxy-5-{4-[N′-(4-[^18F]fluoro-benzylidene)-hydrazino]-benzoylamino}-pentyl)-ureido]-pentanedioic acid (^18F]12). 4-[^18F]fluorobenzaldehyde was synthesized by using a known procedure (Nuclear Medicine and Biology 33 (2006) 677-683). To the crude DMSO solution of 4-[^18F]fluorobenzaldehyde was added 1-2 mg of compound 14, 0.2 mL of 50 mM KH2PO4. The vial was closed and heated at 90° C. for […]. The reaction mixture was then purified by HPLC (Ecomosphere C18 10μ, 250×10 mm, H2O/CH3CN/TFA [70/30/0.1], 4 mL/min). The radiochemical yield (decay corrected and based on starting [^18F] fluoride, n=2) was 30-55%. […] The specific activity of final compound was not determined.
# [2] = tested on: PC-3 PIP (PSMA+) and PC-3 flu (PSMA−) xenograft-bearing SCID mice; assay: Ex vivo biodistribution in tumor-bearing mice
# [3] = tested on: PC-3 PIP and PC-3 flu xenografts in SCID mouse; assay: PET-CT imaging of [18F]6; assay type: in vivo; settings: 94-120 min p.i., PC-3 PIP and PC-3 flu tumors
# Experimental: Compound [^18F]6. In vivo PET-CT: A SCID mouse bearing subcutaneous PC-3 PIP and PC-3 flu xenografts was anesthetized using 3% isoflurane in oxygen for induction and 1.5% isoflurane in oxygen at 0.8 L/min flow for maintenance and positioned prone on the gantry of a GE eXplore Vista small animal PET scanner (GE Healthcare, Milwaukee, Wis.). The mouse was injected intravenously with 7.4 MBq (200 μCi) of [^18F]6 followed by image acquisition using the following protocol: The images were acquired as a pseudodynamic scan, i.e., a sequence of successive whole-body images acquired in three bed positions for a total of 90 min. The dwell time at each position was 5 minutes, such that a given bed position (or mouse organ) was revisited every 15 min. An energy window of 250-700 keV was used. Images were reconstructed using the FORE/2D-OSEM method (2 iterations, 16 subsets) and included corrections for radioactive decay, scanner dead time and scattered radiation.
smiles,measurement,setting,value
"O=C(O)CCC(NC(=O)NC(CCCCNC(=O)c1ccc(NN=Cc2ccc(F)cc2)cc1)C(=O)O)C(=O)O (centres unmarked) [Compound 12, 2-[3-(1-carboxy-5-{4-[N′-(4-fluoro-benzylidene)-hydrazino]-benzoylamino}-pentyl)-ureido]-pentanedioic acid]",stability of compound after preparation,[1],decomposed soon after been made
"O=C(O)CCC(NC(=O)NC(CCCCNC(=O)c1ccc([18F])cc1)C(=O)O)C(=O)O (centres unmarked) [[^18F]6, 2-{3-[1-carboxy-5-(4-[^18F]fluoro-benzoylamino)-pentyl]-ureido}-pentanedioic acid]",PC-3 PIP tumor uptake,[2]; 30 min p.i.,8.58±3.09 % ID/g and 8.6 ± 3.1 % ID/g
same,PC-3 flu tumor uptake,[2]; 30 min p.i.,0.8 ± 0.3 % ID/g
same,PIP tumor:bladder ratio,[2]; 30 min p.i.,(1)
same,PIP tumor:blood ratio,[2]; 30 min p.i.,(3)
same,PIP tumor:heart ratio,[2]; 30 min p.i.,(11)
same,PIP tumor:kidney ratio,[2]; 30 min p.i.,(0.1)
same,PIP tumor:large intestine ratio,[2]; 30 min p.i.,(7)
same,PIP tumor:liver ratio,[2]; 30 min p.i.,(1)
same,PIP tumor:lung ratio,[2]; 30 min p.i.,(5)
same,PIP tumor:muscle ratio,[2]; 30 min p.i.,(4)
same,PIP tumor:pancreas ratio,[2]; 30 min p.i.,(11)
same,PIP tumor:small intestine ratio,[2]; 30 min p.i.,(5)
same,PIP tumor:spleen ratio,[2]; 30 min p.i.,(0.7)
same,PIP tumor:stomach ratio,[2]; 30 min p.i.,(11)
same,PIP:flu ratio,[2]; 30 min p.i.,11
same,bladder uptake,[2]; 30 min p.i.,6.8 ± 3.5 % ID/g
same,blood uptake,[2]; 30 min p.i.,2.5 ± 1.7 % ID/g
same,heart uptake,[2]; 30 min p.i.,0.8 ± 0.1 % ID/g
same,kidney uptake,[2]; 30 min p.i.,72.05±3.19 % ID/g and 72 ± 3 % ID/g
same,large intestine uptake,[2]; 30 min p.i.,1.2 ± 0.8 % ID/g
same,liver uptake,[2]; 30 min p.i.,8.7 ± 1.8 % ID/g
same,lung uptake,[2]; 30 min p.i.,1.7 ± 0.3 % ID/g
same,muscle uptake,[2]; 30 min p.i.,2.4 ± 3.1 % ID/g
same,pancreas uptake,[2]; 30 min p.i.,0.8 ± 0.1 % ID/g
same,small intestine uptake,[2]; 30 min p.i.,1.7 ± 0.7 % ID/g
same,spleen uptake,[2]; 30 min p.i.,12.67±0.36 % ID/g and 12.7 ± 0.4 % ID/g
same,stomach uptake,[2]; 30 min p.i.,0.8 ± 0.1 % ID/g
same,PC-3 PIP tumor uptake,[2]; 60 min p.i.,6.4 ± 0.9 % ID/g
same,PC-3 flu tumor uptake,[2]; 60 min p.i.,0.3 ± 0.05 % ID/g
same,PIP tumor:bladder ratio,[2]; 60 min p.i.,(0.4)
same,PIP tumor:blood ratio,[2]; 60 min p.i.,(9)
same,PIP tumor:heart ratio,[2]; 60 min p.i.,(35)
same,PIP tumor:kidney ratio,[2]; 60 min p.i.,(0.1)
same,PIP tumor:large intestine ratio,[2]; 60 min p.i.,(13)
same,PIP tumor:liver ratio,[2]; 60 min p.i.,(1)
same,PIP tumor:lung ratio,[2]; 60 min p.i.,(13)
same,PIP tumor:muscle ratio,[2]; 60 min p.i.,(13)
same,PIP tumor:pancreas ratio,[2]; 60 min p.i.,(21)
same,PIP tumor:small intestine ratio,[2]; 60 min p.i.,(11)
same,PIP tumor:spleen ratio,[2]; 60 min p.i.,(1)
same,PIP tumor:stomach ratio,[2]; 60 min p.i.,(26)
same,PIP:flu ratio,[2]; 60 min p.i.,21
same,bladder uptake,[2]; 60 min p.i.,17 ± 21 % ID/g
same,blood uptake,[2]; 60 min p.i.,0.7 ± 0.5 % ID/g
same,heart uptake,[2]; 60 min p.i.,0.2 ± 0.02 % ID/g
same,kidney uptake,[2]; 60 min p.i.,48 ± 5 % ID/g
same,large intestine uptake,[2]; 60 min p.i.,0.5 ± 0.1 % ID/g
same,liver uptake,[2]; 60 min p.i.,5.8 ± 0.6 % ID/g
same,lung uptake,[2]; 60 min p.i.,0.5 ± 0.1 % ID/g
same,muscle uptake,[2]; 60 min p.i.,0.5 ± 0.7 % ID/g
same,pancreas uptake,[2]; 60 min p.i.,0.3 ± 0.1 % ID/g
same,small intestine uptake,[2]; 60 min p.i.,0.6 ± 0.2 % ID/g
same,spleen uptake,[2]; 60 min p.i.,7.2 ± 1.6 % ID/g
same,stomach uptake,[2]; 60 min p.i.,0.25 ± 0.1 % ID/g
same,PC-3 PIP tumor uptake,[2]; 2 h p.i.,3.7 ± 1.2 % ID/g
same,PC-3 flu tumor uptake,[2]; 2 h p.i.,0.25 ± 0.1 % ID/g
same,PIP tumor:bladder ratio,[2]; 2 h p.i.,(0.3)
same,PIP tumor:blood ratio,[2]; 2 h p.i.,(9)
same,PIP tumor:heart ratio,[2]; 2 h p.i.,(25)
same,PIP tumor:kidney ratio,[2]; 2 h p.i.,(0.1)
same,PIP tumor:large intestine ratio,[2]; 2 h p.i.,(19)
same,PIP tumor:liver ratio,[2]; 2 h p.i.,(0.3)
same,PIP tumor:lung ratio,[2]; 2 h p.i.,(4)
same,PIP tumor:muscle ratio,[2]; 2 h p.i.,(19)
same,PIP tumor:pancreas ratio,[2]; 2 h p.i.,(25)
same,PIP tumor:small intestine ratio,[2]; 2 h p.i.,(12)
same,PIP tumor:spleen ratio,[2]; 2 h p.i.,(1)
same,PIP tumor:stomach ratio,[2]; 2 h p.i.,(13)
same,PIP:flu ratio,[2]; 2 h p.i.,15
same,bladder uptake,[2]; 2 h p.i.,11 ± 8 % ID/g
same,blood uptake,[2]; 2 h p.i.,0.4 ± 0.2 % ID/g
same,heart uptake,[2]; 2 h p.i.,0.15 ± 0.05 % ID/g
same,kidney uptake,[2]; 2 h p.i.,29 ± 12 % ID/g
same,large intestine uptake,[2]; 2 h p.i.,0.2 ± 0.1 % ID/g
same,liver uptake,[2]; 2 h p.i.,11.7 ± 7.0 % ID/g
same,lung uptake,[2]; 2 h p.i.,1.0 ± 0.9 % ID/g
same,muscle uptake,[2]; 2 h p.i.,0.2 ± 0.1 % ID/g
same,pancreas uptake,[2]; 2 h p.i.,0.15 ± 0.03 % ID/g
same,small intestine uptake,[2]; 2 h p.i.,0.3 ± 0.2 % ID/g
same,spleen uptake,[2]; 2 h p.i.,4.4 ± 1.2 % ID/g
same,stomach uptake,[2]; 2 h p.i.,0.3 ± 0.1 % ID/g
same,PC-3 PIP tumor uptake,[2]; 5 h p.i.,3.5 ± 2.3 % ID/g
same,PC-3 flu tumor uptake,[2]; 5 h p.i.,0.1 ± 0.1 % ID/g
same,PIP tumor:bladder ratio,[2]; 5 h p.i.,(0.7)
same,PIP tumor:blood ratio,[2]; 5 h p.i.,(117)
same,PIP tumor:heart ratio,[2]; 5 h p.i.,(117)
same,PIP tumor:kidney ratio,[2]; 5 h p.i.,(0.3)
same,PIP tumor:large intestine ratio,[2]; 5 h p.i.,(6)
same,PIP tumor:liver ratio,[2]; 5 h p.i.,(3.5)
same,PIP tumor:lung ratio,[2]; 5 h p.i.,(35)
same,PIP tumor:muscle ratio,[2]; 5 h p.i.,(35)
same,PIP tumor:pancreas ratio,[2]; 5 h p.i.,(70)
same,PIP tumor:small intestine ratio,[2]; 5 h p.i.,(35)
same,PIP tumor:spleen ratio,[2]; 5 h p.i.,(3.5)
same,PIP tumor:stomach ratio,[2]; 5 h p.i.,(88)
same,PIP:flu ratio,[2]; 5 h p.i.,35
same,bladder uptake,[2]; 5 h p.i.,5.2 ± 8.9 % ID/g
same,blood uptake,[2]; 5 h p.i.,0.03 ± 0.00 % ID/g
same,heart uptake,[2]; 5 h p.i.,0.03 ± 0.01 % ID/g
same,kidney uptake,[2]; 5 h p.i.,14 ± 9 % ID/g
same,large intestine uptake,[2]; 5 h p.i.,0.6 ± 0.6 % ID/g
same,liver uptake,[2]; 5 h p.i.,1.0 ± 0.6 % ID/g
same,lung uptake,[2]; 5 h p.i.,0.1 ± 0.1 % ID/g
same,muscle uptake,[2]; 5 h p.i.,0.1 ± 0.1 % ID/g
same,pancreas uptake,[2]; 5 h p.i.,0.05 ± 0.03 % ID/g
same,small intestine uptake,[2]; 5 h p.i.,0.1 ± 0.04 % ID/g
same,spleen uptake,[2]; 5 h p.i.,1.0 ± 0.6 % ID/g
same,stomach uptake,[2]; 5 h p.i.,0.04 ± 0.02 % ID/g
same,uptake pattern in PET-CT,[3],"easily observed within PIP tumor, none within flu tumor, high renal uptake and a modest degree of liver uptake; also recorded: uptake within the PSMA+ PIP tumor only"
